Measurements as given in patent US20260183274A1, “PDK1 REGULATORY COMPOUND AND COMPOSITION CONTAINING THE SAME” (PROVIBIO CO., LTD., priority 2024, published 2026).

Experiments:
[1] = test system: T cells isolated from mouse spleens; test: T cell proliferation inhibition (CFSE flow cytometry, anti-CD3/anti-CD28 stimulation); assay type: cell-based; conditions: mouse spleen T cells, 3 days; for inhibition at 0.01 µM / inhibition at 0.1 µM / inhibition at 1 µM / inhibition at 10 µM / inhibition at 30 µM / inhibition at 50 µM: Mus musculus, T-cell, 72 h, read-out: Proliferation inhibition rate (%)
Summary of the method: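 Proliferation inhibition (%) came from flow cytometry of CFSE dilution after 3 days' culture at 37 °C with compound (10 nM, 100 nM, 1, 10, 30, 50 μM; triplicate wells). Cells were magnetically purified T cells from C57BL/6 mouse spleens, 2×10^5 per well, stimulated with 0.5 μg/mL each anti-CD3 and anti-CD28.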

[2] = test system: Human B Lymphocyte cell line, SU-DHL-8; test: Relative cell viability CCK-8, SU-DHL-8; assay type: cell-based; conditions: for viability at 1 µM / viability at 10 µM / viability at 30 µM / viability at 50 µM: Homo sapiens, SU-DHL-8, 48 h; for viability at 1 µM: read-out: Relative cell viability (%), SU-DHL-8, 1 μM; for viability at 10 µM: read-out: Relative cell viability (%), SU-DHL-8, 10 μM; for viability at 30 µM: read-out: Relative cell viability (%), SU-DHL-8, 30 μM; for viability at 50 µM: read-out: Relative cell viability (%), SU-DHL-8, 50 μM
Experimental: Human-derived B lymphoma cell line SU-DHL-8 (Cat. #CRL-2961) purchased from ATCC was cultured in RPMI-1640 medium containing 10% FBS, 100 U/mL penicillin, and 100 μg/mL streptomycin.
The cell culture medium was then harvested, centrifuged at 1,300 rpm for 5 minutes, and the supernatant was removed. The cells were resuspended in the same medium and dispensed into a 96-well plate (Costar 96-well cell culture plate, Corning) at 90 μL per well, resulting in the conditions specified in Table 5.
Then, 10 μL of CCK-8 was added to each well, and the plates were incubated again at 37° C. in a 5% CO2 incubator for 4 hours.
In other words, when the survival rate of untreated cells (DMSO) is set at 100%, the relative cell survival rate in each group treated with the drug at different concentrations is indicated.

[3] = 48 hours, untreated (DMSO) = 100%
[4] = 1 μM, 48 hours, untreated (DMSO) = 100%
[5] = 10 μM, 48 hours, untreated (DMSO) = 100%
[6] = 30 μM, 48 hours, untreated (DMSO) = 100%
[7] = 50 μM, 48 hours, untreated (DMSO) = 100%

| SMILES | inhibition at 0.01 µM ([1]; compound 10 nM) | inhibition at 0.1 µM ([1]; compound 100 nM) | inhibition at 1 µM ([1]; compound 1 μM) | inhibition at 10 µM ([1]; compound 10 μM) | inhibition at 30 µM ([1]; compound 30 μM) | inhibition at 50 µM ([1]; compound 50 μM) | viability at 1 µM [2, 3] | viability at 10 µM [2, 3] | viability at 30 µM [2, 3] | viability at 50 µM [2, 3] | Proliferation inhibition rate (%) ([1]; compound 10 nM) | Proliferation inhibition rate (%) ([1]; compound 100 nM) | Proliferation inhibition rate (%) ([1]; compound 1 μM) | Proliferation inhibition rate (%) ([1]; compound 10 μM) | Proliferation inhibition rate (%) ([1]; compound 30 μM) | Proliferation inhibition rate (%) ([1]; compound 50 μM) | Relative cell viability (%), SU-DHL-8 [2, 4] | Relative cell viability (%), SU-DHL-8 [2, 5] | Relative cell viability (%), SU-DHL-8 [2, 6] | Relative cell viability (%), SU-DHL-8 [2, 7] | also measured |
| --- | --- | --- | --- | --- | --- | --- | --- | --- | --- | --- | --- | --- | --- | --- | --- | --- | --- | --- | --- | --- | --- |
| COc1ccc(CN2CCN(CCCCCCCCCCCCNC(=O)c3cccnc3N)CC2)cc1 [Compound 28, 2-Amino-N-(12-(4-(4-methoxybenzyl)piperazin-1-yl)dodecyl)nicotinamide] | -0.27% | 100% | 100% | 100% | 100% | 100% | 5.46% | 2.82% | 0.33% | – | – | – | – | – | – | – | – | – | – | – | Relative cell viability (%), SU-DHL-8 ([2]; human, 48 h, 50 µM): −1.55% |
| CC1C2CCCN2CCN1CCCCCCCCCCCCNC(=O)c1cccnc1N (centres unmarked) [Compound 29, 2-Amino-N-(12-(1-methylhexahydropyrrolo[1,2-a]pyrazin-2 (1H)-yl)dodecyl)nicotinamide] | 4.15% | 100% | 100% | 100% | 100% | 100% | 3.85% | 1.86% | 1.25% | 1.03% | – | – | – | – | – | – | – | – | – | – | – |
| CC1CN(C(=O)OC(C)(C)C)C(C)CN1CCCCCCCCCCCCNC(=O)c1cccnc1N (centres unmarked) [Compound 30, tert-Butyl 4-(12-(2-aminonicotinamido)dodecyl)-2,5-dimethylpiperazine-1-carboxylate] | 1.34% | 100% | 100% | 100% | 100% | 100% | 7.9% | 2.6% | 1.86% | 1.06% | – | – | – | – | – | – | – | – | – | – | – |
| COC1CCN(CCCCCCCCCCCCNC(=O)c2cccnc2N)C1 (centres unmarked) [Compound 32, 2-Amino-N-(12-(3-methoxypyrrolidin-1-yl)dodecyl) nicotinamide] | – | – | – | – | – | – | – | – | – | – | – | – | – | – | – | – | – | – | – | – | Proliferation inhibition rate (%) ([1]; compound 10 nM, listed as PBK-2024-024, 0.01 µM): 0.29%; Relative cell viability (%), SU-DHL-8 ([2]; 1 μM, 48 hours, untreated (DMSO) = 100%, listed as PBK-2024-024, 1 µM): 3.48%; Relative cell viability (%), SU-DHL-8 ([2]; 10 μM, 48 hours, untreated (DMSO) = 100%, listed as PBK-2024-024, 10 µM): 3.01%; Relative cell viability (%), SU-DHL-8 ([2]; 30 μM, 48 hours, untreated (DMSO) = 100%, listed as PBK-2024-024, 30 µM): 1.97%; Relative cell viability (%), SU-DHL-8 ([2]; 50 μM, 48 hours, untreated (DMSO) = 100%, listed as PBK-2024-024, 50 µM): 1.45% |
| CN(C)CCN1CCN(CCCCCCCCCCCCNC(=O)c2cccnc2N)CC1 [Compound 33, 2-Amino-N-(12-(4-(2-(dimethylamino)ethyl)piperazin-1-yl)dodecyl)nicotinamide] | -36% | 100% | 100% | 100% | 100% | 100% | 10.1% | 4.32% | 3.35% | 2.66% | – | – | – | – | – | – | – | – | – | – | – |
| CC1CNCCN1CCCCCCCCCCCCNC(=O)c1cccnc1N (centres unmarked) [Compound 35, 2-Amino-N-(12-(2-methylpiperazin-1-yl)dodecyl) nicotinamide] | – | – | – | – | – | – | – | – | – | – | 8.33% | 100.00% | 100.00% | 100.00% | 100.00% | 100.00% | 1.18% | 0.64% | 0.42% | – | – |
| C[C@H]1CNCCN1CCCCCCCCCCCCNC(=O)c1cccnc1N.Cl [Compound 37, (S)-2-Amino-N-(12-(2-methylpiperazin-1-yl)dodecyl) nicotinamide hydrochloride] | – | – | – | – | – | – | – | – | – | – | −4.14% | 33.33% | 100.00% | 100.00% | 100.00% | 100.00% | 6.38% | 4.45% | 3.17% | 2.32% | – |
| Nc1ncccc1C(=O)NCCCCCCCCCCCCN1CCC(Oc2ccncc2)CC1 [Compound 38, 2-Amino-N-(12-(4-(pyridin-4-yloxy)piperidin-1-yl)dodecyl) nicotinamide] | – | – | – | – | – | – | – | – | – | – | −33.51% | 100.00% | 100.00% | 100.00% | 100.00% | 100.00% | 4.16% | 3.30% | 1.79% | 1.42% | – |
| CC1CCCN(CCCCCCCCCCCCNC(=O)c2cccnc2N)CC1 (centres unmarked) [Compound 39, 2-Amino-N-(12-(4-methylazepan-1-yl)dodecyl) nicotinamide] | – | – | – | – | – | – | – | – | – | – | −58.92% | 100.00% | 100.00% | 100.00% | 100.00% | 100.00% | 11.48% | 8.41% | 6.24% | 4.27% | – |
| CC1CN(C)C(CCCCCCCCCCCCNc2ccc3cncnc3n2)N1 (centres unmarked) [Compound 43] | – | – | – | – | – | – | – | – | – | – | −10.80% | 100.00% | 100.00% | 100.00% | 100.00% | 100.00% | 22.61% | 11.93% | 2.34% | 1.58% | – |
| Nc1ncccc1C(=O)NCCCCCCCCCCCCN1CC2CCCC2C1 (centres unmarked) [Compound 46, 2-Amino-N-(12-(hexahydrocyclopenta[c]pyrrol-2 (1H)-yl)dodecyl)nicotinamide] | -10.5% | 100% | 100% | 100% | 100% | 100% | 4.8% | 2.44% | 2.08% | – | – | – | – | – | – | – | – | – | – | – | Relative cell viability (%), SU-DHL-8 ([2]; human, 48 h, 50 µM): −0.92% |
| Cc1ccc(C2CCN(CCCCCCCCCCCCNC(=O)c3cccnc3N)CC2)cc1 [Compound 55, 2-Amino-N-(12-(4-(p-tolyl)piperidin-1-yl)dodecyl) nicotinamide] | – | – | – | – | – | – | – | – | – | – | 89.67% | 100.00% | 100.00% | 100.00% | 100.00% | 100.00% | 9.36% | 4.92% | 1.10% | 0.97% | – |
| Cc1nnc(C)n1CCCCCCCCCCCCNC(=O)c1cccnc1N [Compound 56, 2-Amino-N-(12-(3,5-dimethyl-4H-1,2,4-triazol-4-yl)dodecyl)nicotinamide] | -2.51% | 2.91% | 81.1% | 100% | 100% | 100% | 32.4% | 19.6% | 11.2% | 0% | – | – | – | – | – | – | – | – | – | – | – |
| Nc1ncccc1C(=O)NCCCCCCCCF [Compound 61, 2-Amino-N-(8-fluoro-octyl)-nicotinamide] | -10.2% | -6.37% | -5.75% | 34.9% | 85.4% | 93.2% | 48.8% | 36.4% | 42% | 21% | – | – | – | – | – | – | – | – | – | – | – |
